Test results taken from patent publication US20020035061A1, “COMPOSITIONS AND METHODS FOR TREATING INFECTIONS USING CATIONIC PEPTIDES ALONE OR IN COMBINATION WITH ANTIBIOTICS” (priority 1996, published 2002).

Columns and labels:
[1] = test system: microorganisms with acquired resistance; assay: microbe, parasite or virus in culture; type: cell-based; details: for Peptide MIC: in µg/mL
[2] = test system: vancomycin / teicoplanin resistant enterococci; assay: microbe, parasite or virus in culture; type: cell-based; details: for Vancomycin MIC + Peptide: in combination with the labelled peptide; for Peptide MIC + Vancomycin: in combination with vancomycin

KWKSFIKKLTSAAKKVVTTAKPLISS [MBI 26]
Peptide MIC Alone ([1]; P. aeruginosa PA77, Ciprofloxacin section): 128 µg/mL
Peptide MIC ([1]; S. aureus, combination with Ampicillin): 0.25
Peptide MIC ([1]; S. aureus, combination with Mupirocin): 4
Peptide MIC + Tobramycin ([1]; S. epidermidis SE068): 0.5 µg/mL
Tobramycin MIC + Peptide ([1]; S. epidermidis SE068): 4 µg/mL
Peptide MIC Alone ([1]; S. epidermidis SE068, Tobramycin section): 2 µg/mL
Peptide MIC + Tobramycin ([1]; S. epidermidis SE071): 8 µg/mL
Tobramycin MIC + Peptide ([1]; S. epidermidis SE071): 0.125 µg/mL
Peptide MIC Alone ([1]; S. epidermidis SE071, Tobramycin section): 16 µg/mL
Peptide MIC ([1]; S. epidermidis, combination with Clindamycin): 2
Peptide MIC ([1]; S. haemolyticus, combination with Clindamycin): 1
Peptide MIC ([1]; S. haemolyticus, combination with Methicillin): 2
Peptide MIC + Piperacillin ([1]; S. maltophilia 2): 2 µg/mL
Piperacillin MIC + Peptide ([1]; S. maltophilia 2): 16 µg/mL
Peptide MIC Alone ([1]; S. maltophilia 2, Piperacillin section): 4 µg/mL
Peptide MIC + Piperacillin ([1]; S. maltophilia 4): 8 µg/mL
Piperacillin MIC + Peptide ([1]; S. maltophilia 4): 16 µg/mL
Peptide MIC Alone ([1]; S. maltophilia 4, Piperacillin section): 16 µg/mL
Ciprofloxacin MIC + Peptide ([1]; S. maltophilia 34): 0.25 µg/mL
Peptide MIC + Ciprofloxacin ([1]; S. maltophilia 34): 8 µg/mL
Peptide MIC Alone ([1]; S. maltophilia 34, Ciprofloxacin section): >32 µg/mL
Ciprofloxacin MIC + Peptide ([1]; S. maltophilia 35): 0.5 µg/mL
Peptide MIC + Ciprofloxacin ([1]; S. maltophilia 35): 16 µg/mL
Peptide MIC + Piperacillin ([1]; S. maltophilia 35): 16 µg/mL
Piperacillin MIC + Peptide ([1]; S. maltophilia 35): 4 µg/mL
Peptide MIC Alone ([1]; S. maltophilia 35, Ciprofloxacin section): >32 µg/mL
Peptide MIC Alone ([1]; S. maltophilia 35, Piperacillin section): >32 µg/mL
Peptide MIC + Piperacillin ([1]; S. maltophilia 41): 32 µg/mL
Piperacillin MIC + Peptide ([1]; S. maltophilia 41): 16 µg/mL
Peptide MIC Alone ([1]; S. maltophilia 41, Piperacillin section): >32 µg/mL
Gentamicin MIC + Peptide ([1]; S. maltophilia SMA017): 1 µg/mL
Peptide MIC + Gentamicin ([1]; S. maltophilia SMA017): 8 µg/mL
Peptide MIC Alone ([1]; S. maltophilia SMA017, Gentamicin section): 16 µg/mL
Gentamicin MIC + Peptide ([1]; S. maltophilia SMA019): 2 µg/mL
Peptide MIC + Gentamicin ([1]; S. maltophilia SMA019): 2 µg/mL
Peptide MIC Alone ([1]; S. maltophilia SMA019, Gentamicin section): 4 µg/mL
Peptide MIC + Tobramycin ([1]; S. maltophilia SMA027): 64 µg/mL
Tobramycin MIC + Peptide ([1]; S. maltophilia SMA027): 4 µg/mL
Peptide MIC Alone ([1]; S. maltophilia SMA027, Tobramycin section): >128 µg/mL
Peptide MIC ([1]; S. maltophilia, combination with Piperacillin): 32
Peptide MIC + Piperacillin ([1]; S. marcescens 1): 16 µg/mL
Piperacillin MIC + Peptide ([1]; S. marcescens 1): 2 µg/mL
Peptide MIC Alone ([1]; S. marcescens 1, Piperacillin section): >128 µg/mL
FIC ([1]; peptide + Ceftriaxone, A. baumannii ABI005): 0.53
FIC ([1]; peptide + Ceftriaxone, A. baumannii ABI006): 0.56
FIC ([1]; peptide + Ceftriaxone, B. cepacia BC003): 0.50
FIC ([1]; peptide + Ceftriaxone, E. cloacae ECL015): 0.19
FIC ([1]; peptide + Ciprofloxacin, A. calcoaceticus 5): 0.38
FIC ([1]; peptide + Ciprofloxacin, E. cloacae 16): 0.38
FIC ([1]; peptide + Ciprofloxacin, E. cloacae 17): 0.38
FIC ([1]; peptide + Ciprofloxacin, P. aeruginosa 30): 0.09
FIC ([1]; peptide + Ciprofloxacin, P. aeruginosa 31): 0.27
FIC ([1]; peptide + Ciprofloxacin, P. aeruginosa PA41): 0.50
FIC ([1]; peptide + Ciprofloxacin, P. aeruginosa PA77): 0.56
FIC ([1]; peptide + Ciprofloxacin, S. maltophilia 34): 0.25
FIC ([1]; peptide + Ciprofloxacin, S. maltophilia 35): 0.50
FIC ([1]; peptide + Gentamicin, A. baumannii ABI001): 0.56
FIC ([1]; peptide + Gentamicin, A. baumannii ABI002): 0.53
FIC ([1]; peptide + Gentamicin, P. aeruginosa PA023): 0.75
FIC ([1]; peptide + Gentamicin, P. aeruginosa PA041): 0.75
FIC ([1]; peptide + Gentamicin, S. maltophilia SMA017): 0.52
FIC ([1]; peptide + Gentamicin, S. maltophilia SMA019): 0.53
FIC ([1]; peptide + Piperacillin, A. calcoaceticus 2): 0.50
FIC ([1]; peptide + Piperacillin, A. calcoaceticus 7): 0.25
FIC ([1]; peptide + Piperacillin, E. cloacae 13): 0.16
FIC ([1]; peptide + Piperacillin, E. cloacae 19): 0.31
FIC ([1]; peptide + Piperacillin, H. influenzae 1): 0.19
FIC ([1]; peptide + Piperacillin, H. influenzae 2): 0.19
FIC ([1]; peptide + Piperacillin, P. aeruginosa 7): 0.25
FIC ([1]; peptide + Piperacillin, P. aeruginosa 23): 0.27
FIC ([1]; peptide + Piperacillin, P. aeruginosa 26): 0.56
FIC ([1]; peptide + Piperacillin, S. maltophilia 2): 0.75
FIC ([1]; peptide + Piperacillin, S. maltophilia 4): 0.63
FIC ([1]; peptide + Piperacillin, S. maltophilia 35): 0.26
FIC ([1]; peptide + Piperacillin, S. maltophilia 41): 0.52
FIC ([1]; peptide + Piperacillin, S. marcescens 1): 0.09
FIC ([1]; peptide + Tobramycin, P. aeruginosa PA031): 0.75
FIC ([1]; peptide + Tobramycin, S. epidermidis SE068): 0.27
FIC ([1]; peptide + Tobramycin, S. epidermidis SE071): 0.50
FIC ([1]; peptide + Tobramycin, S. maltophilia SMA027): 0.50
Peptide MIC Alone ([2]; E. faecalis EFS005): >128 µg/mL
Peptide MIC Alone ([2]; E. faecalis EFS010): 4 µg/mL
Peptide MIC Alone ([2]; E. faecalis EFS011): >128 µg/mL
MBI 26 Alone (MIC) ([2]; E. faecalis VanA strains): 64 µg/mL
MBI 26 + Teicoplanin (MIC) ([2]; E. faecalis VanA strains, in combination with teicoplanin): 8 µg/mL
Amikacin MIC + Peptide ([2]; E. faecium EFM004): 8 µg/mL
Peptide MIC + Amikacin ([2]; E. faecium EFM004): 32 µg/mL
Peptide MIC Alone ([2]; E. faecium EFM004): 64 µg/mL
Peptide MIC Alone ([2]; E. faecium EFM004, Amikacin section): 64 µg/mL
Peptide MIC Alone ([2]; E. faecium EFM010): 32 µg/mL
Peptide MIC Alone ([2]; E. faecium EFM011): 32 µg/mL
Amikacin MIC + Peptide ([2]; E. faecium EFM020): 8 µg/mL
Peptide MIC + Amikacin ([2]; E. faecium EFM020): 32 µg/mL
Peptide MIC Alone ([2]; E. faecium EFM020, Amikacin section): 64 µg/mL
FIC ([2]; Vancomycin + peptide, E. faecalis EFS005): 0.31
FIC ([2]; Vancomycin + peptide, E. faecalis EFS010): 0.27
FIC ([2]; Vancomycin + peptide, E. faecalis EFS011): 0.25
FIC ([2]; Vancomycin + peptide, E. faecium EFM004): 0.25
FIC ([2]; Vancomycin + peptide, E. faecium EFM010): 0.53
FIC ([2]; Vancomycin + peptide, E. faecium EFM011): 0.31
Vancomycin MIC + Peptide ([2]; E. faecalis EFS005): 4 µg/mL
Vancomycin MIC + Peptide ([2]; E. faecalis EFS010): 1 µg/mL
Vancomycin MIC + Peptide ([2]; E. faecalis EFS011): 2 µg/mL
Vancomycin MIC + Peptide ([2]; E. faecium EFM004): 0.125 µg/mL
Vancomycin MIC + Peptide ([2]; E. faecium EFM010): 1 µg/mL
Vancomycin MIC + Peptide ([2]; E. faecium EFM011): 2 µg/mL
Peptide MIC + Vancomycin ([2]; E. faecalis EFS005): 16 µg/mL
Peptide MIC + Vancomycin ([2]; E. faecalis EFS010): 1 µg/mL
Peptide MIC + Vancomycin ([2]; E. faecalis EFS011): 32 µg/mL
Peptide MIC + Vancomycin ([2]; E. faecium EFM004): 16 µg/mL
Peptide MIC + Vancomycin ([2]; E. faecium EFM010): 16 µg/mL
Peptide MIC + Vancomycin ([2]; E. faecium EFM011): 8 µg/mL
FIC ([2]; peptide + Amikacin, E. faecium EFM004): 0.56
FIC ([2]; peptide + Amikacin, E. faecium EFM020): 0.75
susceptibility of teicoplanin resistant enterococci to teicoplanin ([2]; teicoplanin in combination with peptide): become susceptible to teicoplanin
susceptibility of vancomycin resistant enterococci (VRE) to vancomycin ([2]; vancomycin in combination with peptide): become susceptible to vancomycin
